Here are results for 24 molecules from patent US7612056B2, “Substituted diaza-spiro-[4.5]-decane derivatives and their use as neurokinin antagonists” (Jenssen Pharmaceutica N.V., priority 2005, dated 2009).

Data set [1] deals with T1, NK2 (Homo sapiens, UniProt P21452).
T1 sequence (P21452 1-398): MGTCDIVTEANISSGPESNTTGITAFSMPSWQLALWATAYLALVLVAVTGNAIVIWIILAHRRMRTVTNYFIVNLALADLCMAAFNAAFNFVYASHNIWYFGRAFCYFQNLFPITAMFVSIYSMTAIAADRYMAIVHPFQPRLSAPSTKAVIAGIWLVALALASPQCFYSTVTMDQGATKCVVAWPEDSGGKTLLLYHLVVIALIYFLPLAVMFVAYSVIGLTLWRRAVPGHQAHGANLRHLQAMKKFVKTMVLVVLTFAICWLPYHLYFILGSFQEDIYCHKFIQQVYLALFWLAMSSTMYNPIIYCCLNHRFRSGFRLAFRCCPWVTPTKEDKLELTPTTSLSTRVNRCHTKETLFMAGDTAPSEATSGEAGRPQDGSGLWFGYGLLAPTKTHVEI
The data set can be described thus: Signal transduction (ST), intracellular Ca++ (FLIPR), NK2. The data set is classed as cell-based. The note with it: antagonist, Ca++ transient peak, read-out: pIC50 NK2 (converted).

Data set [2] deals with NK1 (Homo sapiens, UniProt P25103). The data set can be described thus: Signal transduction (ST), intracellular Ca++ (FLIPR), NK1. It is filed as cell-based. The note with it: antagonist, Ca++ transient peak, read-out: pIC50 NK1 (converted). How it is done:
This test evaluates in vitro functional NK1 antagonistic activity. For the measurements of intracellular Ca^++ concentrations the cells were grown on 96-well (black wall/transparent bottom) plates from Costar for 2 days until they reached confluence. The cells were loaded with 2 μM Fluo3 in DMEM containing 0.1% BSA and 2.5 mM probenecid for 1 h at 37° C. They were washed 3× with a Krebs buffer (140 mM NaCl, 1 mM MgCl2×6H2O, 5 mM KCl, 10 mM glucose, 5 mM HEPES; 1.25 mM CaCl2; pH 7.4) containing 2.5 mM probenecid and 0.1% BSA (Ca^++-buffer). The cells were preincubated with a concentration range of antagonists for 20 min at RT and Ca^++-signals after addition of the agonists were measured in a Fluorescence Image Plate Reader (FLIPR from Molecular Devices, Crawley, England). The peak of the Ca^++-transient was considered as the relevant signal and the mean values of corresponding wells were analysed as described below.
The sigmoidal dose response curves were analysed by computerised curve-fitting, using the GraphPad Program. The EC50-value of a compound is the effective dose showing 50% of maximal effect. For mean curves the response to the agonist with the highest potency was normalised to 100%. For antagonist responses the IC50-value was calculated using non-linear regression. […]

Data set [3] concerns the target T2, NK3 (Homo sapiens, UniProt P29371).
T2 sequence (P29371 1-465): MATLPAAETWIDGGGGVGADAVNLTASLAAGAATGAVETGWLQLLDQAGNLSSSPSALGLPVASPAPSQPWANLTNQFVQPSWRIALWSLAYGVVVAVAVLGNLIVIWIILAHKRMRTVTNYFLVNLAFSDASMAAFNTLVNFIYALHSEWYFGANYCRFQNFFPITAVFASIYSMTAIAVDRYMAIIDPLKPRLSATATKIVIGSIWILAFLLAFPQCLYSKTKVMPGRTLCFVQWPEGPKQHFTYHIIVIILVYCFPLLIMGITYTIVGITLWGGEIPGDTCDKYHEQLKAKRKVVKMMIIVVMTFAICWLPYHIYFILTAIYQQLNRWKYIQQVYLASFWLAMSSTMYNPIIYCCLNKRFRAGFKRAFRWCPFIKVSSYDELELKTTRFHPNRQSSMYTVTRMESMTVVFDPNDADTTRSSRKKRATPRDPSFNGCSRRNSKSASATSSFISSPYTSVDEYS
The data set can be described thus: Signal transduction (ST), intracellular Ca++ (FLIPR), NK3. It is filed as cell-based. The note with it: antagonist, Ca++ transient peak, read-out: pIC50 NK3 (converted).

NK1, sequence (P25103 whole entry): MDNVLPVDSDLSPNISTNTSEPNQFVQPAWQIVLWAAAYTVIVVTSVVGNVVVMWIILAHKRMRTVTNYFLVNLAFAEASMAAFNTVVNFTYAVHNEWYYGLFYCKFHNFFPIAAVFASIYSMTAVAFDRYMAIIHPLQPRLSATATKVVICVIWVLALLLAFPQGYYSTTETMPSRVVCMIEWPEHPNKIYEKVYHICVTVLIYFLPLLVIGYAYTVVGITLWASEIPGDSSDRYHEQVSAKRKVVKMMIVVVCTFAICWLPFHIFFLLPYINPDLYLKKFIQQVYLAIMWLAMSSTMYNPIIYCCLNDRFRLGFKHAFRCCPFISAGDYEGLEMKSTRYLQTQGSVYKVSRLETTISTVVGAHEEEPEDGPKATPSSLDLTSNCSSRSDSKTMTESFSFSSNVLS

As to `Cc1ccccc1CN1CC2(CCN([C@@H]3CCN(C(=O)c4cc(C(F)(F)F)cc(C(F)(F)F)c4)[C@H](Cc4ccccc4)C3)CC2)CC1=O` [Compound 32], the figures for the IC50 in data set [1], in data set [2] and in data set [3] were 10.5 µM, 0.269 µM and 8.32 µM, respectively.
The like results for `CS(=O)(=O)N1CC2(CCN([C@H]3CCN(C(=O)c4cc(C(F)(F)F)cc(C(F)(F)F)c4)[C@H](Cc4ccccc4)C3)CC2)c2ccccc21` [Compound 39] were, in that order, over 10 µM, 0.135 µM and over 10 µM.
The like results for `O=C1CC2(CCN([C@@H]3CCN(C(=O)c4cc(C(F)(F)F)cc(C(F)(F)F)c4)[C@H](Cc4ccccc4)C3)CC2)CN1Cc1ccoc1` [Compound 27] were, in that order, 1.91 µM, 0.117 µM and 8.13 µM.
For `O=C(C1CCOC1)N1CCC2(CCN([C@@H]3CCN(C(=O)c4cc(C(F)(F)F)cc(C(F)(F)F)c4)[C@H](Cc4ccccc4)C3)CC2)C1` (stereo partly drawn) [Compound 11] the same measures were over 10 µM, 0.282 µM and 6.92 µM.
Turning to `O=C1CC2(CCN(C3CCN(C(=O)c4cc(C(F)(F)F)cc(C(F)(F)F)c4)C(Cc4ccccc4)C3)CC2)CN1CC1CCCO1` (stereo not drawn) [Compound 25], the figures for the IC50 in data set [1], in data set [2] and in data set [3] were 5.5 µM, 0.0316 µM and 6.92 µM, respectively.
The like results for `O=C1CC2(CCN([C@H]3CCN(C(=O)c4cc(C(F)(F)F)cc(C(F)(F)F)c4)[C@H](Cc4ccccc4)C3)CC2)CN1CC1CC1` [Compound 23] were, in that order, 4.37 µM, 0.0692 µM and over 10 µM.
For `O=C1CC2(CCN([C@H]3CCN(C(=O)c4cc(C(F)(F)F)cc(C(F)(F)F)c4)[C@H](Cc4ccccc4)C3)CC2)CN1Cc1ccoc1` [Compound 26] the same measures were 3.98 µM, 0.0537 µM and over 10 µM.
The like results for `O=C1CC2(CCN([C@@H]3CCN(C(=O)c4cc(C(F)(F)F)cc(C(F)(F)F)c4)[C@H](Cc4ccccc4)C3)CC2)CN1CC1CC1` [Compound 24] were, in that order, 2.04 µM, 0.126 µM and 5.25 µM.
Take `Cc1ccccc1CN1CC2(CCN([C@H]3CCN(C(=O)c4cc(C(F)(F)F)cc(C(F)(F)F)c4)[C@H](Cc4ccccc4)C3)CC2)CC1=O` [Compound 28]: the IC50 in data set [1] was 7.59 µM; in data set [2] it was 0.145 µM; in data set [3], 10.2 µM.
The like results for `O=C1CC2(CCN([C@@H]3CCN(C(=O)c4cc(C(F)(F)F)cc(C(F)(F)F)c4)[C@H](Cc4ccccc4)C3)CC2)CN1Cc1ccccc1Cl` [Compound 35] were, in that order, 9.12 µM, 0.182 µM and 9.55 µM.
The like results for `O=C1CC2(CCN([C@@H]3CCN(C(=O)c4cc(C(F)(F)F)cc(C(F)(F)F)c4)[C@H](Cc4ccccc4)C3)CC2)CN1Cc1ccccc1` [Compound 31] were, in that order, 2.24 µM, 0.0724 µM and 11 µM.
As to `O=C(C1CC1)N1CC2(CCN([C@H]3CCN(C(=O)c4cc(C(F)(F)F)cc(C(F)(F)F)c4)[C@H](Cc4ccccc4)C3)CC2)c2ccccc21` [Compound 37], the figures for the IC50 in data set [1], in data set [2] and in data set [3] were over 10 µM, 0.302 µM and 6.76 µM, respectively.
The like results for `O=C1CC2(CCN([C@@H]3CCN(C(=O)c4cc(C(F)(F)F)cc(C(F)(F)F)c4)[C@H](Cc4ccccc4)C3)CC2)CN1Cc1ccsc1` [Compound 30] were, in that order, 0.813 µM, 0.302 µM and over 10 µM.
Broadly, the melting point is the temperature of the solid-liquid transition. `O=C1CC2(CCN([C@H]3CCN(C(=O)c4cc(C(F)(F)F)cc(C(F)(F)F)c4)[C@H](Cc4ccccc4)C3)CC2)CN1` [Compound 21] had a melting point of 152 °C. Moreover, in data set [1], the IC50 was over 10 µM. Further, the IC50 in data set [2] is 0.347 µM. Besides, the IC50 in data set [3] was over 10 µM.
For the molecule `O=C1CC2(CCN([C@H]3CCN(C(=O)c4cc(C(F)(F)F)cc(C(F)(F)F)c4)[C@H](Cc4ccccc4)C3)CC2)CN1Cc1ccccc1Cl` [Compound 34], the IC50 was 4.47 µM in data set [1], 0.0692 µM in data set [2] and over 10 µM in data set [3].
Take `O=C(c1ccoc1)N1CCC2(CCN(C3CCN(C(=O)c4cc(C(F)(F)F)cc(C(F)(F)F)c4)C(Cc4ccccc4)C3)CC2)C1` (stereo not drawn) [Compound 7]: the values for the IC50 in data set [1], in data set [2] and in data set [3] were 7.59 µM, 0.178 µM and 3.31 µM, respectively.
The like results for `O=C1CC2(CCN([C@@H]3CCN(C(=O)c4cc(C(F)(F)F)cc(C(F)(F)F)c4)[C@H](Cc4ccccc4)C3)CC2)CN1Cc1ccccc1F` [Compound 33] were, in that order, 9.55 µM, 0.191 µM and 9.12 µM.
Consider `O=C(c1ccoc1)N1CCC2(CCN([C@H]3CCN(C(=O)c4cc(C(F)(F)F)cc(C(F)(F)F)c4)[C@H](Cc4ccccc4)C3)CC2)C1` [Compound 8], for which the IC50 in data set [1] is over 10 µM; in data set [2], 0.117 µM; in data set [3], 0.977 µM.
On to `O=C(C1CC1)N1CCC2(CC1)CCN(C1CCN(C(=O)c3cc(C(F)(F)F)cc(C(F)(F)F)c3)C(Cc3ccccc3)C1)C2` (stereo not drawn) [Compound 6], for which the melting point was 160 °C. Further, in data set [2], the IC50 was 0.0537 µM. Also, the IC50 in data set [3] is over 10 µM.
Regarding `O=C1CC2(CCN([C@H]3CCN(C(=O)c4cc(C(F)(F)F)cc(C(F)(F)F)c4)[C@H](Cc4ccccc4)C3)CC2)CN1Cc1ccsc1` [Compound 29], the IC50 is 5.25 µM in data set [1], 0.102 µM in data set [2] and over 10 µM in data set [3].
The like results for `O=C(c1cc(C(F)(F)F)cc(C(F)(F)F)c1)N1CC[C@H](N2CCCC3(CCCN3C(=O)c3ccoc3)C2)C[C@H]1Cc1ccccc1` (stereo partly drawn) [Compound 48] were, in that order, 3.63 µM, 0.234 µM and over 10 µM.
For `O=C(c1cc(C(F)(F)F)cc(C(F)(F)F)c1)N1CCC(N2CCC3(CC2)CCN(S(=O)(=O)c2cccs2)C3)CC1Cc1ccccc1` (stereo not drawn) [Compound 9] the same measures were 9.55 µM, 0.234 µM and over 10 µM.
`O=C(c1cc(C(F)(F)F)cc(C(F)(F)F)c1)N1CC[C@H](N2CCCC3(CCCN3C(=O)C3CC3)C2)C[C@H]1Cc1ccccc1` (stereo partly drawn) [Compound 46]: the IC50 in data set [1] is 2.04 µM; in data set [2] it was 0.204 µM.
On to `O=C(c1ccccc1Cl)N1CCC2(CCN([C@H]3CCN(C(=O)c4cc(C(F)(F)F)cc(C(F)(F)F)c4)[C@H](Cc4ccccc4)C3)CC2)C1` [Compound 13], for which the IC50 in data set [1] was 5.13 µM; in data set [2] it was 0.0759 µM; in data set [3] it was 4.27 µM.
